The source of these data is the supplement of paper PMC10307832.

Compound in one test: CC1=CC(=C(N1C2=CC=C(C=C2)Cl)C)C(=O)CN3CCCCC3 [IU1-47]
Kind of test: relative viability (nuclei count vs DMSO), 5 days (fraction); higher = more cells survive. Put shortly: (§1)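 For viability, nuclei in each treated well were divided by nuclei in vehicle wells and the median across plates was taken. Lung cancer cell lines in 1536-well plates were pinned with five library-drug doses (not always all listed) spaced by √10, cultured 5 days without medium change, and imaged at 4× after Hoechst staining, with plates passing only at control CV below 25% and at least one doubling.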

Compound in the next test: Cc1nc(C(=O)NCC(=O)O)c(O)c2ccc(Oc3ccccc3)cc12 [FG-4592]
The description is as above. Put shortly:
as §1

On to NCI-H1666, for which the relative viability worked out at 0.953 with IU1-47 (0.08 µM); 1.02 with IU1-47 (0.253 µM); 0.968 in the test with IU1-47 (0.8 µM); 0.957 in the test with IU1-47 (2.53 µM); 1.01 in the test with IU1-47 (8 µM); 0.979 in the test with FG-4592 (0.08 µM). The relative viability was 0.939 with FG-4592 (0.253 µM), 0.953 with FG-4592 (0.8 µM), 0.913 in the test with FG-4592 (2.53 µM) and 0.901 with FG-4592 (8 µM).
For NCI-H1703, the relative viability is 1.03 with IU1-47 (0.08 µM); 0.75 with IU1-47 (0.253 µM); 0.894 in the test with IU1-47 (0.8 µM); 0.921 with IU1-47 (2.53 µM); 0.922 with IU1-47 (8 µM); 0.901 with FG-4592 (0.08 µM). The relative viability in the test with FG-4592 (0.253 µM) is 0.823; with FG-4592 (0.8 µM) it was 0.935; with FG-4592 (2.53 µM), 0.904; in the test with FG-4592 (8 µM) it was 0.772.
For NCI-H1734, the relative viability in the test with IU1-47 (0.08 µM) came to 1.06; in the test with IU1-47 (0.253 µM) it was 1.07; in the test with IU1-47 (0.8 µM), 0.981; with IU1-47 (8 µM) it was 0.99; with FG-4592 (0.08 µM), 0.824; in the test with FG-4592 (0.253 µM) it was 0.939. Moreover, the relative viability with FG-4592 (0.8 µM) stood at 0.717; with FG-4592 (2.53 µM), 0.808; with FG-4592 (8 µM), 0.876.
For the cell line NCI-H1755, the relative viability in the test with IU1-47 (0.08 µM) was 1.11; with IU1-47 (0.253 µM), 1.11; with IU1-47 (0.8 µM), 1.09; in the test with IU1-47 (2.53 µM), 1.04; with IU1-47 (8 µM) it was 0.958; with FG-4592 (0.08 µM), 0.958. The relative viability with FG-4592 (0.253 µM) amounted to 0.941; in the test with FG-4592 (0.8 µM) it was 0.916; in the test with FG-4592 (2.53 µM) it was 1.02; with FG-4592 (8 µM), 1.03.
In the case of NCI-H1792, the relative viability in the test with IU1-47 (0.08 µM) amounted to 0.847; with IU1-47 (0.253 µM) it was 0.796; with IU1-47 (0.8 µM), 0.889; with IU1-47 (2.53 µM), 0.862; with IU1-47 (8 µM), 0.486; in the test with FG-4592 (0.08 µM), 0.763. The relative viability with FG-4592 (0.253 µM) is 0.725; with FG-4592 (0.8 µM), 0.693; in the test with FG-4592 (2.53 µM), 0.861; in the test with FG-4592 (8 µM), 0.868.
Regarding NCI-H1793, the relative viability with IU1-47 (0.08 µM) amounted to 0.859; with IU1-47 (0.253 µM), 0.83; with IU1-47 (0.8 µM) it was 1.04; with IU1-47 (8 µM) it was 0.864; with FG-4592 (0.08 µM) it was 0.569; in the test with FG-4592 (0.253 µM), 0.812. In addition, the relative viability with FG-4592 (2.53 µM) is 0.745; in the test with FG-4592 (8 µM), 0.762.
NCI-H1915: the relative viability with IU1-47 (0.08 µM) worked out at 0.995; with IU1-47 (0.253 µM), 0.989; with IU1-47 (0.8 µM), 1.04; with IU1-47 (8 µM), 0.905; with FG-4592 (0.08 µM), 0.951; with FG-4592 (0.253 µM), 0.959. In addition, the relative viability with FG-4592 (0.8 µM) came to 0.918; in the test with FG-4592 (2.53 µM) it was 0.955; with FG-4592 (8 µM) it was 1.02.
On to NCI-H1944, for which the relative viability came out at 1.1 in the test with IU1-47 (0.08 µM); 1.02 with IU1-47 (0.253 µM); 0.947 with IU1-47 (0.8 µM); 0.902 with IU1-47 (2.53 µM); 0.852 with IU1-47 (8 µM); 0.932 with FG-4592 (0.08 µM). The relative viability worked out at 0.872 with FG-4592 (0.253 µM), 0.685 with FG-4592 (0.8 µM), 0.954 with FG-4592 (2.53 µM) and 0.852 with FG-4592 (8 µM).
Take NCI-H1975: the relative viability with IU1-47 (0.08 µM) came to 0.963; with IU1-47 (0.253 µM) it was 0.943; with IU1-47 (0.8 µM), 1.06; with IU1-47 (2.53 µM), 0.968; with IU1-47 (8 µM) it was 0.842; with FG-4592 (0.08 µM), 1. Besides, the relative viability was 0.881 with FG-4592 (0.253 µM), 0.9 with FG-4592 (0.8 µM), 0.839 in the test with FG-4592 (2.53 µM) and 0.861 with FG-4592 (8 µM).
Regarding NCI-H1993, the relative viability in the test with IU1-47 (0.08 µM) stood at 0.927; with IU1-47 (0.253 µM) it was 1.07; with IU1-47 (0.8 µM), 0.856; with IU1-47 (2.53 µM), 0.974; with IU1-47 (8 µM), 0.914; with FG-4592 (0.08 µM), 0.987. Further, the relative viability with FG-4592 (0.253 µM) was 0.925; in the test with FG-4592 (0.8 µM) it was 0.64; in the test with FG-4592 (2.53 µM), 0.827; in the test with FG-4592 (8 µM), 0.78.
Take NCI-H2009: the relative viability with IU1-47 (0.08 µM) came out at 1; in the test with IU1-47 (0.253 µM), 1; with IU1-47 (0.8 µM) it was 1.02; with IU1-47 (2.53 µM), 0.842; with IU1-47 (8 µM) it was 1.04; in the test with FG-4592 (0.08 µM) it was 1.03. Also, the relative viability with FG-4592 (0.253 µM) was 0.958; with FG-4592 (0.8 µM), 1; with FG-4592 (2.53 µM), 0.902; in the test with FG-4592 (8 µM) it was 0.953.
Consider NCI-H2023, for which the relative viability came out at 0.951 with IU1-47 (0.08 µM); 0.949 with IU1-47 (0.253 µM); 1.06 with IU1-47 (0.8 µM); 0.851 in the test with IU1-47 (2.53 µM); 1.27 in the test with IU1-47 (8 µM); 0.919 with FG-4592 (0.08 µM). The relative viability with FG-4592 (0.253 µM) came to 0.866; with FG-4592 (0.8 µM), 0.857; in the test with FG-4592 (2.53 µM) it was 0.922; with FG-4592 (8 µM) it was 0.88.
For the cell line NCI-H2085, the relative viability is 1.05 in the test with IU1-47 (0.08 µM); 0.998 with IU1-47 (0.253 µM); 0.973 in the test with IU1-47 (0.8 µM); 1.01 in the test with IU1-47 (2.53 µM); 0.954 with IU1-47 (8 µM); 1 with FG-4592 (0.08 µM). The relative viability was determined as 0.955 in the test with FG-4592 (0.253 µM), 0.934 with FG-4592 (0.8 µM), 0.965 with FG-4592 (2.53 µM) and 1.02 with FG-4592 (8 µM).
Consider NCI-H2087, for which the relative viability with IU1-47 (0.08 µM) was found to be 1.04; with IU1-47 (0.253 µM), 1.01; with IU1-47 (0.8 µM), 1.06; with IU1-47 (2.53 µM), 0.924; in the test with IU1-47 (8 µM), 1; in the test with FG-4592 (0.08 µM), 0.98. For the same cell line, the relative viability is 0.988 with FG-4592 (0.253 µM), 1.32 in the test with FG-4592 (0.8 µM), 1.01 in the test with FG-4592 (2.53 µM) and 1.13 with FG-4592 (8 µM).
